Measured values: article PMC5786060, “Discovery of new molecular entities able to strongly interfere with Hsp90 C-terminal domain” (Scientific Reports, 2018)
Like-named read-outs stand apart in the source and are kept apart here.

What was measured:
recombinant human Hsp90α = biological target: T1, recombinant human Hsp90α (Homo sapiens, UniProt P07900); assay: SPR binding to immobilized recombinant Hsp90α; details: Biacore 3000, immobilized full length Hsp90α, 25 °C, 1:1 Langmuir model, read-out: KD (nM) ± SD
T1 construct: purchased Abcam
Protocol: Recombinant human Hsp90α was purchased from Abcam (Abcam, Cambridge, UK). […] SPR analyses were carried out according to our previously published data[25]–[28],[32],[50]. Surface Plasmon Resonance Spectroscopy (SPR) analyses were performed to determine binding of various molecules to full length Hsp90α using a Biacore 3000 optical biosensor equipped with research-grade CM5 sensor chips (GE Healthcare). Hsp90α was coupled to the surface of a CM5 sensor chip using standard amine-coupling protocols, according to the manufacturer’s instructions.
The protein (100 µg mL^−1 in 10 mM CH3COONa, pH 5.0) was immobilized on individual sensor chip surfaces at a flow rate of 5 µL min^−1 to obtain densities of 8–12 kRU. For the experiments a recombinant Hsp90α surface, a BSA surface and one unmodified reference surface were prepared for simultaneous analyses. […] For each molecule a six-point concentration series were set up, spanning […], and for each sample the complete binding study was performed using triplicate aliquots. Changes in mass, due to the binding response, were recorded as resonance units (RU). To obtain the dissociation constant (KD) (Table 1), these responses were fit to a 1:1 Langmuir binding model by nonlinear regression using the BiaEvaluation software program provided by GE Healthcare. Simple interactions were suitably fitted to a single-site bimolecular interaction model (A + B = AB), yielding a single KD. (Table 1). SPR experiments were performed at 25 °C, using a flow rate of 50 µL min^−1, with 60 s monitoring of association and 300 s monitoring of dissociation.

[1] = test system: U937 (human monocytic cell line from histiocytic lymphoma); assay: Anti-proliferation MTT assay, U937 cells; assay type: cell-based; details: for IC50: Homo sapiens
Protocol: (§1) Jurkat and U937 (2 × 10^4 /well) cells were seeded in triplicate in 96 well−plates and incubated for the 24 h or 48 h in the absence or presence of different concentrations of compounds 1, 4–5, 7–15, 21–22, 26 (concentration between 10 µM to 100 µM) or Novobiocin (concentration between 50 µM to 500 µM). Stock solutions of compounds (100 mM in DMSO) were diluted just before addition to the sterile culture medium and the final concentration of DMSO was 0.15% (v/v).
(§2) The number of viable cells was determined by using a […] (MTT, Sigma-Aldrich) conversion assay, according to the method described by Terracciano et al. 2016[27],[28]. After the indicated treatment, the cells were incubated for additional 3 h at 37 °C, with 25 µL of MTT (5 mg/mL in PBS). The formazan crystals thus formed were dissolved in 100 μl of buffer containing 50% (v/v) N,N-dimethylformamide, 20% SDS (pH 4.5). The absorbance was read at 570 nm using an Absorbance Microplate Reader (Titertek multiskan MCC7340, LabSystems, Vienna, VA, USA) equipped with a 620 nm filter. The cell population growth inhibition was also tested by cytometric counting (trypan blu exclusion). IC50 values were calculated from cell viability dose−response curves and defined as the concentration resulting in 50% inhibition of cell survival, compared to control cells treated with DMSO (see Supplementary Material Tables S2 and S3).

[2] = test system: Jurkat (human leukemic T lymphocyte); assay: Anti-proliferation MTT assay, Jurkat cells; assay type: cell-based; details: for IC50: Homo sapiens
Protocol: as §1, §2

Jurkat cells = assay: Cell cycle distribution / hypodiploid cells by PI flow cytometry; assay type: cell-based, human; details: for hypodiploid cells: 200 µM; for hypodiploid cells (subG0/G1 DNA content): 100 µM
Protocol: Cell DNA content was measured by propidium iodide (PI) incorporation into permeabilized cells, as described by Nicoletti et al. Briefly, the Jurkat cells were treated for 24 h or 48 h with compounds used at the different concentrations. In particular, the compounds 7 or 10 were used at 25 or 50 µM, novobiocin was used at 50, 100 or 200 µM. The treated cells were harvested and incubated with a PI solution (0.1% sodium citrate, 0.1% Triton X-100 and 50 μg/ml of prodium iodide, Sigma-Aldrich, 10 μg/ml Rnase A) for 30 min at room temperature.
The cells were analyzed using FACScalibur flow cytometry (Becton Dickinson, San Josè, CA. The distribution of cells in cell cycle phases was determined using ModFit LT analysis software (Becton Dickinson). The percentage of apoptotic cells is represented as the percentage of hypodiploid cells accumulated at the sub G0/G1 phase of the cell cycle and was quantified using the CellQuest software (Becton Dickinson). Results were expressed as a mean ± SD of three experiments performed in triplicate.

[3] = test system: Hsp90-dependent client proteins Raf-1, p-Akt, p-Erk and p53; Hsc70, Hsp90, Hsp70 in Jurkat cells; assay: Western blot of Hsp90 client proteins and heat shock proteins; assay type: cell-based, human; details: 24 h; for degradation of Hsp90-dependent client proteins Raf-1, p-Akt, p-Erk and p53 / reduction of Hsc70: 25 and 50 µM, western blot densitometry
Protocol: Following the treatment, the cells were trypsinized and homogenized on ice in RIPA lysis buffer (50 mM Hepes, 10 mM EDTA, 150 mM NaCl, 1% NP-40, 0.5% sodium deoxycholate, 0.1% SDS, pH 7.4), supplemented with protease inhibitors cocktail (Sigma-Aldrich). After centrifugation at 4 °C to removed cell debris, an equal protein amount (40 µg) was separated by SDS-PAGE under denatured reducing conditions and was then transferred to nitrocellulose membranes. The blots were blocked with 3% BSA and were incubated at 4 °C overnight with primary antibodies: anti-Hsp 70; anti-Hsp 90α/ß, anti-Raf1, anti-pAkt, anti Erk, anti pErk, anti-p53, anti Hsc70, anti GRP94, anti cyclin A antibodies (Santa Cruz Biotechnology, Inc., Delaware, CA, USA), anti-actin antibody (Sigma-Aldrich) anti CDK2, anti Cyclin D1 and anti CDK4 antibodies (Cell Signaling Technology, Leiden, Netherlands). Appropriate peroxidase-conjugate secondary antibodies were used to detect primary antibodies, and enzymatic signals were visualized by chemiluminescence reagent Pierce ECL (Thermo Scientific, Rockford, IL, USA). Quantitative densitometry analyses were performed using a ImageQuant LAS 4000 system (GE Healthcare Life Sciences,NY, USA).

[4] = test system: PHA-stimulated human peripheral blood mononuclear cells (PBMC); assay: Cytotoxicity on PHA-stimulated PBMC by trypan blue count; assay type: cell-based; details: 25 µM, DMSO control about 5 ± 0.9%
Protocol: Human peripheral blood mononuclear cells (PBMC), induced to proliferate by phytohemagglutinin (PHA) (10 µg/ml), were used to evaluate cytotoxic effects by trypan blue count of compound 7 and 10. Human peripheral blood mononuclear cells (PBMC) were isolated from buffy coats of healthy donors (kindly provided by the Blood Center of the Hospital of Battipaglia, Salerno, Italy) by using standard Ficoll−Hypaque gradients.

[5] = U-937, 24 h, read-out: IC50 (µM) 24h
[6] = U-937, 48 h, read-out: IC50 (µM) 48h

Compound | Kd (recombinant human Hsp90α) | IC50 [1, 5] | IC50 [1, 6] | IC50 ([2]; 24 h, read-out: IC50 (µM) 24h) | IC50 ([2]; 48 h, read-out: IC50 (µM) 48h) | other results
COC(=O)c1ccc(Oc2c[nH]nc2-c2ccc(OC)cc2O)cc1 [Compound 20] | 14.2 ± 4.9 nM |  |  |  |  | 
CO[C@@H]1[C@@H](OC(N)=O)[C@@H](O)[C@H](Oc2ccc3c(O)c(NC(=O)c4ccc(O)c(CC=C(C)C)c4)c(=O)oc3c2C)OC1(C)C [Novobiocin, reference compound] |  | 232 µM | 190 µM | 171 µM | 150 µM | hypodiploid cells (Jurkat cells; 24 h): 14%; hypodiploid cells (Jurkat cells; 48 h): 30%; effect on cell cycle progression (Jurkat cells; 50 and 100 µM, 24 or 48 h): did not affect cell cycle progression
O=C1c2ccccc2C(=O)N1CCSc1ncnc2scc(-c3ccc(Cl)cc3)c12 [Compound 4] | 3.2 ± 1.1 nM | > 100 µM | > 100 µM | > 100 µM | > 100 µM | 
C=CCNC1=C2C[C@@H](C)C[C@H](OC)[C@H](O)[C@@H](C)/C=C(\C)[C@H](OC(N)=O)[C@@H](OC)/C=C\C=C(/C)C(=O)NC(=CC1=O)C2=O [Compound 17-AAG, 17-(Allylamino)-17-demethoxygeldanamycin, reference compound] |  |  |  |  |  | effect on Hsp90 and Hsp70 protein levels (heat shock response) ([3]; 17-AAG 2 µM, compounds 25 and 50 µM): significant up-regulation of Hsp90 and Hsp70 expression levels
O=C1CCS(=O)(=O)N1c1ccc(S(=O)(=O)NCc2cccc3c2OCO3)cc1 [Compound 15] | 4.8 ± 2.9 nM |  |  |  |  | IC50 (µM) 24h [1]: not active; IC50 (µM) 48h [1]: not active; IC50 (µM) 24h ([2]; 24 h): not active; IC50 (µM) 48h ([2]; 48 h): not active
COc1cc(/C=N/NC(=O)NC(=O)c2ccccc2Cl)ccc1O [Compound 21] | 13.2 ± 2.3 nM |  |  |  |  | IC50 (µM) 24h [1]: not active; IC50 (µM) 48h [1]: not active; IC50 (µM) 24h ([2]; 24 h): not active; IC50 (µM) 48h ([2]; 48 h): not active
O=C(c1ccc2c(c1)OCO2)N1CCC(c2nc3ccccc3[nH]2)CC1 [Compound 26] | 25.7 ± 8.4 nM | > 100 µM | > 100 µM | > 100 µM | > 100 µM | 
COc1ccc(NCC(=O)Nc2ncc(Cc3ccc(Cl)c(Cl)c3)s2)cc1 [Compound 7] | 5.2 ± 3.8 nM | 51.2 µM | 51 µM | 25.1 µM | 22 µM | non-viable cells percentage ([4]; 24 h): about 6 ± 1.8%; non-viable cells percentage ([4]; 48 h): ~8 ± 1.5%; hypodiploid cells (subG0/G1 DNA content) (Jurkat cells; 48 h): 10%; degradation of Hsp90-dependent client proteins Raf-1, p-Akt, p-Erk and p53 [3]: 50–60%; reduction of Hsc70 [3]: 15–20%
Cc1cc(C)c2c(C)cc3nnc(SCCCN4C(=O)c5ccccc5C4=O)n3c2c1 [Compound 5] | 14.7 ± 9.4 nM | 91.2 µM | 91.2 µM | 100 µM | 98.3 µM | 
CN(CCc1ccncc1)C(=O)c1ccc(N2C(=O)CCS2(=O)=O)cc1 [Compound 22] | 4.1 ± 2.6 nM |  |  |  |  | IC50 (µM) 24h [1]: not active; IC50 (µM) 48h [1]: not active; IC50 (µM) 24h ([2]; 24 h): not active; IC50 (µM) 48h ([2]; 48 h): not active

Now from value to molecule, other results behind:

Kd (recombinant human Hsp90α) | IC50 [1, 5] | IC50 [1, 6] | IC50 ([2]; 24 h, read-out: IC50 (µM) 24h) | IC50 ([2]; 48 h, read-out: IC50 (µM) 48h) | Compound | other results
1.5 ± 0.5 nM | > 100 µM | > 100 µM | > 100 µM | > 100 µM | NC(=O)c1ccccc1NC(=O)CCCCCN1C(=O)c2ccccc2C1=O [Compound 1] | 
300 ± 19.3 nM | 98.3 µM | 97 µM | 56.8 µM | 54 µM | COC(=O)c1ccc(NC(=O)CCCCCn2c(=O)[nH]c3ccccc3c2=O)cc1 [Compound 13] | 
2.4 ± 0.6 nM |  |  |  |  | O=C(CNc1ccc(F)cc1)Nc1ncc(Cc2ccccc2F)s1 [Compound 8] | IC50 (µM) 24h [1]: not active; IC50 (µM) 48h [1]: not active; IC50 (µM) 24h ([2]; 24 h): not active; IC50 (µM) 48h ([2]; 48 h): not active
95.1 ± 5.7 nM | > 100 µM | > 100 µM | > 100 µM | > 100 µM | O=C(CCCCCn1c(=O)[nH]c2ccccc2c1=O)NCCN1CCOCC1 [Compound 12] | 
20.9 ± 9.5 nM | 97.3 µM | 95.3 µM | 90.2 µM | 85.5 µM | COc1ccc(NCC(=O)Nc2ncc(Cc3cccc4ccccc34)s2)cc1 [Compound 9] | 
260 ± 8.4 nM | > 100 µM | > 100 µM | > 100 µM | > 100 µM | NC(=O)c1ccc(NC(=O)CCCCCn2c(=O)[nH]c3ccccc3c2=O)cc1 [Compound 14] | 
20.8 ± 8.7 nM | 52 µM | 50 µM | 26.1 µM | 23.5 µM | O=C(CCCCCn1c(=O)[nH]c2ccccc2c1=O)Nc1ccc(Br)cc1F [Compound 10] | non-viable cells percentage ([4]; 24 h): about 7 ± 1.3%; non-viable cells percentage ([4]; 48 h): ~9 ± 1.8%; hypodiploid cells (subG0/G1 DNA content) (Jurkat cells; 48 h): 10%; cell cycle phase in which cells are arrested (Jurkat cells; after 24 h, retained after 48 h): S phase; degradation of Hsp90-dependent client proteins Raf-1, p-Akt, p-Erk and p53 [3]: 50–60%; reduction of Hsc70 [3]: 15–20%
79.3 ± 7.2 nM | 90.1 µM | 90.3 µM | 48.2 µM | 42.5 µM | O=C(CCCCCn1c(=O)[nH]c2ccccc2c1=O)CCCn1ccnc1 [Compound 11] | 
